Laboratory results: ChEMBL document CHEMBL1158624, “Prenylcoumarin with Rev-export inhibitory activity from Cnidii Monnieris Fructus” (Bioorg Med Chem Lett, 2010)
Calls of active or inactive are those of the source. The calls are words filed in the database; no cut-off is given here.

What was measured:
Format in all cases: cell-based
Exportin-1 [1] = target: T1, Exportin-1 (Homo sapiens, UniProt O14980); test: Inhibition of CRM1-mediated hemagglutininin-tagged HIV1 Rev protein nuclear export in human HeLa cells assessed as nucleus localization after 12 hrs by indirect fluorescent antibody technique
Exportin-1 [2] = target: T1, Exportin-1; test: Inhibition of CRM1-mediated hemagglutininin-tagged HIV1 Rev protein nuclear export in human HeLa cells assessed as nuclear localization at 5 uM after 12 hrs by indirect fluorescent antibody technique
Exportin-1 [3] = target: T1, Exportin-1; test: Inhibition of CRM1-mediated hemagglutininin-tagged HIV1 Rev protein nuclear export in human HeLa cells assessed as nucleus localization at 25 uM after 12 hrs by indirect fluorescent antibody technique

T1 sequence (O14980 whole entry): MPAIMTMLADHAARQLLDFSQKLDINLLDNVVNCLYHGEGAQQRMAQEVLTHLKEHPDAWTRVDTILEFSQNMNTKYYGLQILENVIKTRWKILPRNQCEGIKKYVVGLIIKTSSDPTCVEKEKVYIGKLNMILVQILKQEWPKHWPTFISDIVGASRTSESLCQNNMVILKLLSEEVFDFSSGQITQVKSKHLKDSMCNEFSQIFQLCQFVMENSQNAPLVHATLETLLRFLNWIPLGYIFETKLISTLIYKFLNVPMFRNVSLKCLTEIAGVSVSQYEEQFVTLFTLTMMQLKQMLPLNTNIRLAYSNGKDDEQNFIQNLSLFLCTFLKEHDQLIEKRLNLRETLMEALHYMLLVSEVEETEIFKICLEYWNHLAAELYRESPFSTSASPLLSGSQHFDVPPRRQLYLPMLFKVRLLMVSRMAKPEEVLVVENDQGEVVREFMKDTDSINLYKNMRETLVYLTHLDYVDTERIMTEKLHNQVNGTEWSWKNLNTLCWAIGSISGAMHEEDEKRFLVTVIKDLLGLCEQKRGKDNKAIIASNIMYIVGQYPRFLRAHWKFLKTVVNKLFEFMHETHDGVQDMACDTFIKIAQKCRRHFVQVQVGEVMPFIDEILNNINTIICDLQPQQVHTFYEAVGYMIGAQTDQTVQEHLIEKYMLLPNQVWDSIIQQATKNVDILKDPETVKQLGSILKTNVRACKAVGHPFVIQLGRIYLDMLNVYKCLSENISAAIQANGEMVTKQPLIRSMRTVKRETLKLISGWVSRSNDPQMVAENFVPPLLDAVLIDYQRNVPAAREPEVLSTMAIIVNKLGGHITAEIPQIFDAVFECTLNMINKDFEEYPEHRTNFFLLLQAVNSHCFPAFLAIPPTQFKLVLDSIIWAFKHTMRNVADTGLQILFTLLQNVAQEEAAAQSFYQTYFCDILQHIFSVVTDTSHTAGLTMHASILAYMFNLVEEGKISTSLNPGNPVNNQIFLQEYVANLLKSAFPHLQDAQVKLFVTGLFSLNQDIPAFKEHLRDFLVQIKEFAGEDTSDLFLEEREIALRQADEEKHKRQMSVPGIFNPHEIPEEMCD

Compound | IC50 (Exportin-1 [1]) [µM] | inhibition (Exportin-1 [2]) | inhibition (Exportin-1 [3]) [%]
COc1ccc2c(c1CC=C(C)C)OC(=O)CC2 | – | – | 2.6
CC(C)=CCc1cccc2ccc(=O)oc12 | 6.4 | – | –

Continued, values first:

IC50 (Exportin-1 [1]) [µM] | inhibition (Exportin-1 [2]) | inhibition (Exportin-1 [3]) [%] | Compound
> 25 | – | – | O=c1ccc2ccccc2o1 [COUMARIN]
1.6 | Active | – | COc1ccc2ccc(=O)oc2c1CC=C(C)C [OSTHOLE]
> 25 | – | – | COc1ccc2ccc(=O)oc2c1 [HERNIARIN]
